Source: ChEMBL document CHEMBL3526017, “Predicting the drug interaction potential of AMG 853, a dual antagonist of the D-prostanoid and chemoattractant receptor-homologous molecule expressed on T helper 2 cells receptors” (Drug Metab Dispos, 2012)
pKi: −log10 of the molar value.

How the values were obtained:
Assay type in all cases: ADME
[1] = molecular target: UDP-glucuronosyltransferase 1A4 (Homo sapiens, UniProt P22310); test: Drug metabolism assessed as human recombinant UGT1A4-mediated compound formation treated with AMG 853 at 10 uM after 30 mins by LC-MS/MS analysis; details: recombinant enzyme, 0.5 h
Sequence of UDP-glucuronosyltransferase 1A4 (P22310 whole entry): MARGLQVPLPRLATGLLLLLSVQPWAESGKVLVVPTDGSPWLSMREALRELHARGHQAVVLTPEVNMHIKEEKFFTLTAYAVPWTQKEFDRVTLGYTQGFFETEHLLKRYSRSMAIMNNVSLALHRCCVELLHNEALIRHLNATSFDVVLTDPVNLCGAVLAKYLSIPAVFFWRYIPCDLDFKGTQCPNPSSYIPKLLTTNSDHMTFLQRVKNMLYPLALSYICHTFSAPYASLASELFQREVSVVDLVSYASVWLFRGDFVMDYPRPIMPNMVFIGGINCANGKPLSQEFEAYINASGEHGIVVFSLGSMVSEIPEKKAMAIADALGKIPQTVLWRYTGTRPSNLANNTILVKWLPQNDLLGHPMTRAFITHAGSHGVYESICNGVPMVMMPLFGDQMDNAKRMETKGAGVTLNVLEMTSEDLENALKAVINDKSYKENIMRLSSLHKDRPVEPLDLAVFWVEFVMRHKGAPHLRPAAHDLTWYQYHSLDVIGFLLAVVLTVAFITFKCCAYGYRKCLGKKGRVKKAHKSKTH

Liver microsome [2] = test: Drug metabolism in human liver microsomes treated with AMG 853 after 45 mins by LC-MS/MS analysis in presence of UDPGA; details: 0.75 h
[3] = molecular target: T1, UDP-glucuronosyltransferase 1A3 (Homo sapiens, UniProt P35503); test: Drug metabolism assessed as human recombinant UGT1A3-mediated compound formation treated with AMG 853 after 45 mins by LC-MS/MS analysis in presence of UDPGA; details: recombinant enzyme, 0.75 h
T1 sequence (P35503 whole entry): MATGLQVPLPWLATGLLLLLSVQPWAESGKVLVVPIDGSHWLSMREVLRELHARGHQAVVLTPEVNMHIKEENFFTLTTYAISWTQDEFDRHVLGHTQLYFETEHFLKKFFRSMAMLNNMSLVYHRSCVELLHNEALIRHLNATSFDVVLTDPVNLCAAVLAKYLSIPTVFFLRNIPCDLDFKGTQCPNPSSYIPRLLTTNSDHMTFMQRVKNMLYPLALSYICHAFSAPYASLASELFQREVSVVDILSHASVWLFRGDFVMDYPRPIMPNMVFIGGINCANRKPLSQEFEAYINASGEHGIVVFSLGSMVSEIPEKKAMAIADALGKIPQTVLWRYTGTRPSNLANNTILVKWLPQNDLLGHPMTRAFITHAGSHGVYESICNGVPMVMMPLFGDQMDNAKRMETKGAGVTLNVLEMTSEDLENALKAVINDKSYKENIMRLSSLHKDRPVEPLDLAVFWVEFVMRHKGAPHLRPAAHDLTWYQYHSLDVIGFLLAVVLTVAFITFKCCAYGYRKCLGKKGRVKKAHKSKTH

[4] = molecular target: UDP-glucuronosyltransferase 2B17 (Homo sapiens, UniProt O75795); test: (§1) Drug metabolism assessed as human recombinant UGT2B17-mediated (2S,3S,4S,5R,6S)-6-(2-(4-(4-(tert-butylcarbamoyl)-2-(2-chloro-4-cyclopropylphenylsulfonamido)phenoxy)-5-chloro-2-fluorophenyl)acetoxy)-3,4,5-trihydroxytetrahydro-2H-pyran-2-carboxylic acid formation at 10 uM after 30 mins by LC-MS/MS analysis; details: recombinant enzyme, 0.5 h
Sequence of UDP-glucuronosyltransferase 2B17 (O75795 whole entry): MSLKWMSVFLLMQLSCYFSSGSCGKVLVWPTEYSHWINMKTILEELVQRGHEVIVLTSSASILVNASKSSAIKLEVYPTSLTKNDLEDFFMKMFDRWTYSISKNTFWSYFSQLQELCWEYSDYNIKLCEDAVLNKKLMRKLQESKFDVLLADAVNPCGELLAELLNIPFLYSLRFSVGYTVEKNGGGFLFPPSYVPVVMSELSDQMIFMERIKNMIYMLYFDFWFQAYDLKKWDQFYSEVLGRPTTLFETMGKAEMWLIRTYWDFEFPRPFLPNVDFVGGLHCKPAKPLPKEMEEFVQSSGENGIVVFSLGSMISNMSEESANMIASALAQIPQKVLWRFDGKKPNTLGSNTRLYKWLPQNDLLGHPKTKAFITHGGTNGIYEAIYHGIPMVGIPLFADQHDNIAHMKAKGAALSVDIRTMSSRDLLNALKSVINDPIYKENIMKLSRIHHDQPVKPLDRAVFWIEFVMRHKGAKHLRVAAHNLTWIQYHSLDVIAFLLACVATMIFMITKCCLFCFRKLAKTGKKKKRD

Cytochrome P450 2C8 = molecular target: T2, Cytochrome P450 2C8 (Homo sapiens, UniProt P10632); test: Competitive inhibition of CYP2C8 in human liver microsomes assessed as rosiglitazone demethylation after 20 mins by LC-MS/MS analysis
T2 sequence (P10632 whole entry): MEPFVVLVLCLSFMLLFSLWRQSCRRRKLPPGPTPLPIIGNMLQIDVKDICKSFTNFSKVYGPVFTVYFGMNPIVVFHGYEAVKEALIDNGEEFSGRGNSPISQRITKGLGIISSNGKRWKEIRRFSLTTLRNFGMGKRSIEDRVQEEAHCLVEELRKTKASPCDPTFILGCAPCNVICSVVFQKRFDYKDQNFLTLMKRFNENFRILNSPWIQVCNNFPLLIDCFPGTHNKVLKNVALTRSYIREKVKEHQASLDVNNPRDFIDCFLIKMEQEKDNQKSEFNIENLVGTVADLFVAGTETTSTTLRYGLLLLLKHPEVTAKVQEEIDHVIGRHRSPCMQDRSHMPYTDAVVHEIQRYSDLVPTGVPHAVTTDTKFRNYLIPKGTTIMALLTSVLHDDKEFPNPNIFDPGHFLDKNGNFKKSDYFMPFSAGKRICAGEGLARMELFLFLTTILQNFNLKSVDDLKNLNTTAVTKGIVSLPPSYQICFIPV

[5] = molecular target: UDP-glucuronosyltransferase 1A10 (Homo sapiens, UniProt Q9HAW8); test: as §1, with “UGT1A10-mediated” for “UGT2B17-mediated”; details: recombinant enzyme, 0.5 h
Sequence of UDP-glucuronosyltransferase 1A10 (Q9HAW8 whole entry): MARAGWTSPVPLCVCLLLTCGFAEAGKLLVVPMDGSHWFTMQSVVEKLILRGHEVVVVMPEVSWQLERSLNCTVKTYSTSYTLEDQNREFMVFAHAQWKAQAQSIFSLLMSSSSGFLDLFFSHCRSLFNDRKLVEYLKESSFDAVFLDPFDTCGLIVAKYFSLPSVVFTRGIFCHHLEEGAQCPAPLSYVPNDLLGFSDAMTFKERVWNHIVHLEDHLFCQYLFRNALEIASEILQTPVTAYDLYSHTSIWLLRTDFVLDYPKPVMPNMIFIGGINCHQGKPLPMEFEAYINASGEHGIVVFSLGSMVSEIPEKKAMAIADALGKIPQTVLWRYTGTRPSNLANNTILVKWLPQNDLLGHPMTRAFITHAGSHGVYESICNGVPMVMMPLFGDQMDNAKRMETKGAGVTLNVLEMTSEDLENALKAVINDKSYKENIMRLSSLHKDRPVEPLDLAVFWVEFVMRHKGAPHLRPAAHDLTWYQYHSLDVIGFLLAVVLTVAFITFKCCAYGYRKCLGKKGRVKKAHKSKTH

Cytochrome P450 3A5 = Cytochrome P450 3A5 (Homo sapiens, UniProt P20815); test: Drug metabolism assessed as recombinant CYP3A5 (unknown origin)-mediated 2-(5-chloro-4-(2-(2-chloro-4-cyclopropylphenylsulfonamido)-4-(1-hydroxy-2-methylpropan-2-ylcarbamoyl)phenoxy)-2-fluorophenyl)acetic acid formation at 10 uM after 30 mins by LC-MS/MS analysis; details: recombinant enzyme, 0.5 h
Sequence of Cytochrome P450 3A5 (P20815 whole entry): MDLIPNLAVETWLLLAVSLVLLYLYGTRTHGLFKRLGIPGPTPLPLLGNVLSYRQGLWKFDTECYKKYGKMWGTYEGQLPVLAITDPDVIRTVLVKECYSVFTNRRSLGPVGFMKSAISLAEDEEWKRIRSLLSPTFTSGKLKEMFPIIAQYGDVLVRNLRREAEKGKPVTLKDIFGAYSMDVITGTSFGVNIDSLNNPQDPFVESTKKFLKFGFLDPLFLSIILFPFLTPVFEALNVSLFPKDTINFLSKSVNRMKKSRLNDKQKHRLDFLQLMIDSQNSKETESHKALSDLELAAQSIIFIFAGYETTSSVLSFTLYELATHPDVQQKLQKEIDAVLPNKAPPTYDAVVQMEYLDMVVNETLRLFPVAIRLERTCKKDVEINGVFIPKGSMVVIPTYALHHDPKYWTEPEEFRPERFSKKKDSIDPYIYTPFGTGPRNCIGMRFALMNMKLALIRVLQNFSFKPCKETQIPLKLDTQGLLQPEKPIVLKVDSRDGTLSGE

[6] = Drug metabolism in human liver microsomes assessed as CYP3A5*1/*1-mediated (2S,3S,4S,5R,6S)-6-(2-(4-(4-(tert-butylcarbamoyl)-2-(2-chloro-4-cyclopropylphenylsulfonamido)phenoxy)-5-chloro-2-fluorophenyl)acetoxy)-3,4,5-trihydroxytetrahydro-2H-pyran-2-carboxylic acid formation after 15 mins by LC-MS/MS analysis in presence of UDPGA and NADPH; details: 0.25 h
[7] = molecular target: T1, UDP-glucuronosyltransferase 1A3; test: as §1, with “UGT1A3-mediated” for “UGT2B17-mediated”; details: recombinant enzyme, 0.5 h
Liver microsome [8] = test: Drug metabolism in human liver microsomes assessed as 2-(4-(4-(tert-butylcarbamoyl)-2-(2-chloro-4-(1-hydroxycyclopropyl)phenylsulfonamido)phenoxy)-5-chloro-2-fluorophenyl)acetic acid formation at 2 uM after 60 mins by LC-MS/MS analysis in presence of ketoconazole; details: 1 h

| Compound | Drug metabolism [1] | S50 (Liver microsome [2]) | Vmax (Liver microsome [2]) | S50 [3] | Vmax [3] | Drug metabolism [4] | pKi (Cytochrome P450 2C8) | Drug metabolism [5] | Drug metabolism (Cytochrome P450 3A5) | Drug metabolism [6] | Drug metabolism [7] | Drug metabolism (Liver microsome [8]) |
| --- | --- | --- | --- | --- | --- | --- | --- | --- | --- | --- | --- | --- |
| CC(C)(C)NC(=O)c1ccc(Oc2cc(F)c(CC(=O)O[C@@H]3O[C@H](C(=O)O)[C@@H](O)[C@H](O)[C@H]3O)cc2Cl)c(NS(=O)(=O)c2ccc(C3CC3)cc2Cl)c1 | metabolite_detected | 205.4 µM | 43 pmol/min/mg | 379.2 µM | 39.1 pmol/min/mg |  |  |  |  |  |  |  |
| CC(C)(C)NC(=O)c1ccc(Oc2cc(F)c(CC(=O)O)cc2Cl)c(NS(=O)(=O)c2ccc(C3CC3)cc2Cl)c1 [VIDUPIPRANT] |  |  |  |  |  | metabolite_not_detected | 5.22 | metabolite_not_detected | metabolite_detected | metabolite_not_detected | metabolite_detected | metabolite_not_detected |
